This note sets out measurements from US9416181B2, “Compositions for cell culture and methods of using the same” (AbbVie Inc., priority 2013, dated 2016).

This test concerns Cell Line 1 (CHO) expressing Antibody 1. The experiment in a line: Acidic species variants (WCX-10) of Antibody 1, Cell Line 1 3 L bioreactor fed-batch culture. The test is classed as cell-based, Chinese Hamster. Conditions: for drop in absolute acidic species percentage points: 3 L bioreactor; for drop in absolute acidic species percentage points / relative total AR (ratio to Day 8 value of unsupplemented control): Day 15 harvest. The method, then: A recombinant Chinese Hamster Ovary (CHO) cell line (Cell Line 1) expressing a humanized monoclonal antibody (Antibody 1) was evaluated in 2 different cultures vessels (shaker flasks and 3 L laboratory-scale bioreactors). The cell line was of CHO DUX-B11 origin based on a DHFR (dihydrofolate reductase) expression system and cultured in a chemically defined basal media, and fed periodically with a chemically-defined feed media (CDFM). The media utilized throughout all of the experiments were chemically-defined, and both animal-component free, and protein-free. Each of the respective media were supplemented as needed with selected bioflavonoids to evaluate for their potential impact on the resulting acidic species profile. In preparation of the cultures, the cell lines were serially expanded through separate seed train inoculums to generate enough cells for inoculation. Process conditions utilized during the cultures were slightly different depending on the culture scale, but similar within each scale to the respective non-bioflavonoid supplemented control conditions. All bioflavonoids utilized were purchased from Sigma-Aldrich (St. Louis, Mo.).
Samples were analyzed using an HPLC system equipped with a ProPac WCX-10 analytical column (Thermo Scientific, Sunnyvale, Calif.). Approximately 100 μg of sample was loaded in 6% Buffer B (10 mM sodium phosphate, 500 mM NaCl, pH 5.5) and 94% Buffer A (10 mM sodium phosphate, pH 7.5). The column was run at a flow rate of 1.0 mL/min. The protein was eluted from the column by increasing the buffer B composition from 6% to 16% over 20 minutes. The protein peaks were measured using UV absorbance at 280 nm as the peaks eluted from the column. The column was regenerated using 100% buffer B followed be a re-equilibration period using initial condition before the injection of the next sample. Peaks eluting before the main peak were termed “acidic peaks” and peaks eluting after the main peak were called “basic peaks” (FIG. 2).
In the next experiment, lab-scale bioreactors were used to (1) confirm the shaker experiment results and (2) to determine whether higher concentration range of EGCG is suitable for supplementing into cell culture. EGCG was added to the feed of the batch culture at the concentrations of 20 mg/L (mid), 50 mg/L (high) and 125 mg/L (high+) and 250 mg/L (high++) in this reactor experiment.
Cell Line 1 was evaluated in larger-scale feed batch cultures with the feed media supplemented with various bioflavonoids. […] By contrast, cell growth performance was slightly different for the 0.1 g/L EGCG supplemented condition. […] However, the cell viability remained high at 0.1 g/L EGCG. All cultures were successfully harvested on Day 15 post-inoculation. The harvest titers measured from the evaluated cultures were similar.
Cell Line 1 was also evaluated in laboratory-scale fedbatch cultures with the feed media supplemented with various bioflavonoids. […] Cell growth performance was slightly different however with the 0.1 g/L EGCG supplemented condition. […] All cultures were able to be successfully harvested on Day 15 post-inoculation.

The mark [1] stands for this setting: 50, 125 and 250 mg/L in feed, bioreactor.

SMILES strings stand for the structures. Bounds are passed on as bounds.

For the compound `O=C(O[C@@H]1Cc2c(O)cc(O)cc2O[C@@H]1c1cc(O)c(O)c(O)c1)c1cc(O)c(O)c(O)c1` [EGCG, epigallocatechin gallate], the “drop in absolute acidic species percentage points” value is given as 4% (0.05 g/L in CDFM) and 10% (0.1 g/L in CDFM). The “relative total AR (ratio to Day 8 value of unsupplemented control)” value (0.05 g/L in CDFM, bioreactor) came to 1.10 and the “relative total AR (ratio to Day 8 value of unsupplemented control)” value (0.1 g/L in CDFM, bioreactor) came out at 0.69. In addition, the “reduction of total acidic species content, absolute value” under setting [1] is given as “at least 2%”. The “reduction of total acidic species content, relative value” under setting [1] is at least 16%.
